Key:
WEE1 = target: T1, WEE1 (Homo sapiens, UniProt P30291+Q96SW2); test: Western-blot assay of substrate protein degradation in hPBMCs, WEE1; type: cell-based; settings: 24 hours of compound treatment, compounds tested at 50 nM and 500 nM (concentration of the table not stated)
T1 construct: endogenous in cells; host or cells: hPBMCs (Milecell Biotechnologies)

IKZF1 = target: T2, IKZF1 (Homo sapiens, UniProt Q13422+Q96SW2); test: Western-blot assay of substrate protein degradation in hPBMCs, IKZF1; type: cell-based; settings: 24 hours of compound treatment, compounds tested at 50 nM and 500 nM (concentration of the table not stated)
T2 construct: endogenous in cells; host or cells: hPBMCs (Milecell Biotechnologies)
T2 sequence (Q13422 whole entry): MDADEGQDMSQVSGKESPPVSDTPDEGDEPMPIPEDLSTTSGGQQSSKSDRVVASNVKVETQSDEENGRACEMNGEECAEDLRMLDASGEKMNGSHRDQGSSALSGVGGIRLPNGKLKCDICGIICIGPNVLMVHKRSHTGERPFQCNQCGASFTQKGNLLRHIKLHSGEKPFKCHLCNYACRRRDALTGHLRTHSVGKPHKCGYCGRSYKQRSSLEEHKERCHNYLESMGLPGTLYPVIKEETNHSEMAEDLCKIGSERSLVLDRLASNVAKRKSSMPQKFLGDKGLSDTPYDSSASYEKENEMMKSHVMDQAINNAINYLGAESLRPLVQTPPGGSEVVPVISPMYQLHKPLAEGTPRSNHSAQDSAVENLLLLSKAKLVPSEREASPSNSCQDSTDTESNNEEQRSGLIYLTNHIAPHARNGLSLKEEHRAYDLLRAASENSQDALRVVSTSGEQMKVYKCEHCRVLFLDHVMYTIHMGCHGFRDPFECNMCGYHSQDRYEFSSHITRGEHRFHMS
T2 sequence (Q96SW2 whole entry): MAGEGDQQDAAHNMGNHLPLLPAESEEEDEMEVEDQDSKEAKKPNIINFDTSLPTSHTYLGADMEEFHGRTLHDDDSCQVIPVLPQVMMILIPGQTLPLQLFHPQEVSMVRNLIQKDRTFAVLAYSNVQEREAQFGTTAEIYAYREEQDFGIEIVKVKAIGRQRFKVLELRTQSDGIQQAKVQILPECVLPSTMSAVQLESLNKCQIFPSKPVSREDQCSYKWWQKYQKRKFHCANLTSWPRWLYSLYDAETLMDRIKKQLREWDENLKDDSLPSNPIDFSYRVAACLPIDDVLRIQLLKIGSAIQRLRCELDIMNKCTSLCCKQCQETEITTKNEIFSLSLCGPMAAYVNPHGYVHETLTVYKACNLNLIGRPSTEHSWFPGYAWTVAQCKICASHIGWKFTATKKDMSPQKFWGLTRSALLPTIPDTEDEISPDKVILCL
T2 sequence (Q16531 whole entry partner): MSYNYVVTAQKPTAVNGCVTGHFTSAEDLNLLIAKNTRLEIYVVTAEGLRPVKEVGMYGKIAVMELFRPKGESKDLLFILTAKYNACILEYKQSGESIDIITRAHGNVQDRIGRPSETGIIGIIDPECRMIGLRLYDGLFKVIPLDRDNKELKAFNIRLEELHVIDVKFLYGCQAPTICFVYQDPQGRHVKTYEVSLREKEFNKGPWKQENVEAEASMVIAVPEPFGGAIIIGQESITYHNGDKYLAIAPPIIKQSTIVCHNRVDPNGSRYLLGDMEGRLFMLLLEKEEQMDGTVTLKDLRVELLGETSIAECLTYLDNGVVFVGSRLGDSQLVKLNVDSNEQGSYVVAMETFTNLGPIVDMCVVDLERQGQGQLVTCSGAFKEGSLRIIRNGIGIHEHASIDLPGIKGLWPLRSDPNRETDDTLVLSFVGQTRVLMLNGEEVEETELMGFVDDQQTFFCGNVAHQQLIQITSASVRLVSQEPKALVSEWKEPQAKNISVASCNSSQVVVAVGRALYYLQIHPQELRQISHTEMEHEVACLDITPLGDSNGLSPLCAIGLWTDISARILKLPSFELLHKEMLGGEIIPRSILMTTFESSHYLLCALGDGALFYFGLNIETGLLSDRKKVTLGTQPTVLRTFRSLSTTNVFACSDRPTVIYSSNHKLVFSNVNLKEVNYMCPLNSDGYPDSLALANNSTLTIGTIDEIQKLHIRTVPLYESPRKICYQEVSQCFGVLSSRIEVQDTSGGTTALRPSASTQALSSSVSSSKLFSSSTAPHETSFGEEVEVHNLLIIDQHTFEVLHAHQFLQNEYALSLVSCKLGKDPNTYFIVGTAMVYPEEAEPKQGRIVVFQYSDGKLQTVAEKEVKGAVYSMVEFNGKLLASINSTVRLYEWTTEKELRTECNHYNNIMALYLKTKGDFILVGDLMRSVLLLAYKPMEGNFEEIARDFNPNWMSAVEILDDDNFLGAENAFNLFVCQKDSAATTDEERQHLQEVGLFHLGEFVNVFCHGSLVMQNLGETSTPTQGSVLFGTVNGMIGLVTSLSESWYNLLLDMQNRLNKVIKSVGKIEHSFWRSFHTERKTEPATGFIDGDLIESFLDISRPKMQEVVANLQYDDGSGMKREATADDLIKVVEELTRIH

IKZF2 = target: T3, IKZF2 (Homo sapiens, UniProt Q96SW2+Q9UKS7); test: Western-blot assay of substrate protein degradation in hPBMCs, IKZF2; type: cell-based; settings: 24 hours of compound treatment, compounds tested at 50 nM and 500 nM (concentration of the table not stated)
T3 construct: endogenous in cells; host or cells: hPBMCs (Milecell Biotechnologies)

IKZF3 = target: T4, IKZF3 (Homo sapiens, UniProt Q96SW2+Q9UKT9); test: Western-blot assay of substrate protein degradation in hPBMCs, IKZF3; type: cell-based; settings: 24 hours of compound treatment, compounds tested at 50 nM and 500 nM (concentration of the table not stated)
T4 construct: endogenous in cells; host or cells: hPBMCs (Milecell Biotechnologies)
T4 sequence (Q9UKT9 whole entry): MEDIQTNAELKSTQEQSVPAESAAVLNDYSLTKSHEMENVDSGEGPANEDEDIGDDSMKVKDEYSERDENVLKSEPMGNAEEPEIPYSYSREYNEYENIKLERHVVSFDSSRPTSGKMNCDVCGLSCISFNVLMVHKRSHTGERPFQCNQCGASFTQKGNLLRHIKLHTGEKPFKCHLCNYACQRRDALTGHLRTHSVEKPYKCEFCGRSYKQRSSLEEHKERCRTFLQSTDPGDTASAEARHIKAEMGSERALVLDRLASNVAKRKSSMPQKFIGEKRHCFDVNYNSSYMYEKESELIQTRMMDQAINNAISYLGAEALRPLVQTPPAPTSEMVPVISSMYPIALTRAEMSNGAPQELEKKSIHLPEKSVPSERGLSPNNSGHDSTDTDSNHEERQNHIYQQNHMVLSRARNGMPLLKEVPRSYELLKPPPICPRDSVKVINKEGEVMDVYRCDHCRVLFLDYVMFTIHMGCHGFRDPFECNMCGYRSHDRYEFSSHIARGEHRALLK
T4 sequence (Q96SW2 whole entry): as the sequence (Q96SW2 whole entry) above
T4 sequence (Q16531 whole entry partner): as the sequence (Q16531 whole entry partner) above

CK1α = target: T5, CK1α (Homo sapiens, UniProt P48729+Q96SW2); test: Western-blot assay of substrate protein degradation in hPBMCs, CK1α; type: cell-based; settings: 24 hours of compound treatment, compounds tested at 50 nM and 500 nM (concentration of the table not stated)
T5 construct: endogenous in cells; host or cells: hPBMCs (Milecell Biotechnologies)
T5 sequence (P48729 whole entry): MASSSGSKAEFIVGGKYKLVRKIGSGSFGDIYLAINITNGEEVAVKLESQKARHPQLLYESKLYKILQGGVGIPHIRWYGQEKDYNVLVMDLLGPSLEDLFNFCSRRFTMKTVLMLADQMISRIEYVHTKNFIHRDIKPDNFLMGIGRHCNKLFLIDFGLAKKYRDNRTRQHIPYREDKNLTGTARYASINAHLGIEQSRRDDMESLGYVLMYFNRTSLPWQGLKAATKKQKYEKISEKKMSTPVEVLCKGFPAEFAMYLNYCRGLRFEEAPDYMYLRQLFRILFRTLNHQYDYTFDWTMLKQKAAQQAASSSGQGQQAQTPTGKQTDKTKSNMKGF
T5 sequence (Q96SW2 whole entry): as the sequence (Q96SW2 whole entry) above
T5 sequence (Q16531 whole entry partner): as the sequence (Q16531 whole entry partner) above

GSPT1 = target: T6, GSPT1 (Homo sapiens, UniProt P15170+Q96SW2); test: Western-blot assay of substrate protein degradation in hPBMCs, GSPT1; type: cell-based; settings: 24 hours of compound treatment, compounds tested at 50 nM and 500 nM (concentration of the table not stated)
T6 construct: endogenous in cells; host or cells: hPBMCs (Milecell Biotechnologies)
T6 sequence (P15170 whole entry): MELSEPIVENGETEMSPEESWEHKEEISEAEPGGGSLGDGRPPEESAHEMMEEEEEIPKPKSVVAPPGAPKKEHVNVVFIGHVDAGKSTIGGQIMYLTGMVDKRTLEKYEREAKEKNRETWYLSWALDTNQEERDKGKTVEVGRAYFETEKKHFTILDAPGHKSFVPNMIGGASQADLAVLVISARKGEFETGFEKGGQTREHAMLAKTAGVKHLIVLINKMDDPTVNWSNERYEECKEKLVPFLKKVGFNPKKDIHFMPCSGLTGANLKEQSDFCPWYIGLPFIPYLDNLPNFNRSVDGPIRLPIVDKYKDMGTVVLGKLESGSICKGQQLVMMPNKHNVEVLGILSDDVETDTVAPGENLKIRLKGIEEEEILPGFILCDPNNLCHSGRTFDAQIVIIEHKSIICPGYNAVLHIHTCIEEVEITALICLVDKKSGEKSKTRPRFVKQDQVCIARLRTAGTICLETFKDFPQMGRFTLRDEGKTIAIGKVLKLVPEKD
T6 sequence (Q96SW2 whole entry): as the sequence (Q96SW2 whole entry) above
T6 sequence (Q16531 whole entry partner): as the sequence (Q16531 whole entry partner) above

[1] = target: T7, human Cereblon WT GST-tagged protein (Homo sapiens, UniProt Q96SW2); test: CRBN-binding affinity by HTRF (CEREBLON BINDING kit); settings: HTRF inhibitory activity, CEREBLON BINDING kit; read-out: HTRF IC50
T7 construct: purchased CISBIO 64BDCRBNPEH
T7 sequence (Q96SW2 whole entry): as the sequence (Q96SW2 whole entry) above

TMD8 = test: Tumor cell proliferation inhibition (CellTiter-Meiluncell Luminescent Cell Viability Assay), TMD8; settings: Homo sapiens, TMD8, 96 h, read-out: inhibitory activity (IC50, nM) against tumor cells proliferation, TMD8
[2] = tested on: Human acute T lymphocytic leukemia cells (Molt-4); test: Tumor cell proliferation inhibition (CellTiter-Meiluncell Luminescent Cell Viability Assay), Molt-4; settings: MOLT-4, 96 h, read-out: inhibitory activity (IC50, nM) against tumor cells proliferation, Molt 4
NCI-H1975 = test: Tumor cell proliferation inhibition (CellTiter-Meiluncell Luminescent Cell Viability Assay), NCI-H1975; settings: Homo sapiens, NCI-H1975, 96 h, read-out: inhibitory activity (IC50, nM) against tumor cells proliferation, H1975
[3] = tested on: Human breast cancer cells (MDA-MB-231); test: Tumor cell proliferation inhibition (CellTiter-Meiluncell Luminescent Cell Viability Assay), MDA-MB-231; settings: MDA-MB-231, 96 h, read-out: inhibitory activity (IC50, nM) against tumor cells proliferation, MDA-MB-231

T1 sequence (P30291 whole entry): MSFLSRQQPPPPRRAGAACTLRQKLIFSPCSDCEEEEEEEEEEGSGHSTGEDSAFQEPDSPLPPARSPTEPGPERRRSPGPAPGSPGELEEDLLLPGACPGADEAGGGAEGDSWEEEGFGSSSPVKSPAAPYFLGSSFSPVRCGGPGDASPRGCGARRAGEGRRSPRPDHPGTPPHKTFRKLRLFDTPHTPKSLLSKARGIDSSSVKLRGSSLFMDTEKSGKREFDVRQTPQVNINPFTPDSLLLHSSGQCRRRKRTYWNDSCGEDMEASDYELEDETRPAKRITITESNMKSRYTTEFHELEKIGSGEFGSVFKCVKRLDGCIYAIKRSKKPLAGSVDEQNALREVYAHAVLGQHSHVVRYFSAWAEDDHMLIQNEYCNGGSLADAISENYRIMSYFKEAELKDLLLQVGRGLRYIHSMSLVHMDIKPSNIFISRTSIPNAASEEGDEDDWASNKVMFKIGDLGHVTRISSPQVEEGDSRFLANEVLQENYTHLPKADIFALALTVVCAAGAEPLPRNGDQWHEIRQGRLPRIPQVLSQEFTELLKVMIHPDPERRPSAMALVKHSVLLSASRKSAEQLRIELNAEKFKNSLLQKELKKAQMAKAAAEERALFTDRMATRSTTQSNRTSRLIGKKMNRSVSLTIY
T1 sequence (Q96SW2 whole entry): as the sequence (Q96SW2 whole entry) above
T1 sequence (Q16531 whole entry partner): as the sequence (Q16531 whole entry partner) above

| Compound | Weel substrate protein remaining % (WEE1) | IKZF 1 substrate protein remaining % (IKZF1) | IKZF2 substrate protein remaining % (IKZF2) | IKZF3 substrate protein remaining % (IKZF3) | CK1a substrate protein remaining % (CK1α) | GSPT1 substrate protein remaining % (GSPT1) | IC50 [1] | IC50 (TMD8) | IC50 [2] | IC50 (NCI-H1975) | IC50 [3] |
| --- | --- | --- | --- | --- | --- | --- | --- | --- | --- | --- | --- |
| O=C1CCC(N2Cc3c(ccc(CN4CCC(c5noc6cc(F)ccc56)CC4)c3F)C2=O)C(=O)N1 (centres unmarked) [GT-04765, 3-(4-fluoro-5-((4-(6-fluorobenzo[d]isoxazol-3-yl)piperidin-1-yl)methyl)-1-oxoisoindolin-2-yl)piperidine-2,6-dione] | A (0% ≤ substrate protein remaining % ≤ 80%) | A (0% ≤ substrate protein remaining % ≤ 80%) | A (0% ≤ substrate protein remaining % ≤ 80%) | A (0% ≤ substrate protein remaining % ≤ 80%) | A (0% ≤ substrate protein remaining % ≤ 80%) | A (0% ≤ substrate protein remaining % ≤ 80%) | 1000 to 1500 nM | 100 to 500 nM | 5 to 10 nM | 50 to 100 nM | 10 to 50 nM |
| O=C1CCC(N2Cc3cc(CN4CC=C(c5ccco5)CC4)ccc3C2=O)C(=O)N1 (centres unmarked) [GT-04617, 3-(5-((4-(furan-2-yl)-3,6-dihydropyridin-1(2H)-yl)methyl)-1-oxoisoindolin-2-yl)piperidine-2,6-dione] | A (0% ≤ substrate protein remaining % ≤ 80%) | A (0% ≤ substrate protein remaining % ≤ 80%) | A (0% ≤ substrate protein remaining % ≤ 80%) | A (0% ≤ substrate protein remaining % ≤ 80%) | B (80%< substrate protein remaining %≤ 100%) | A (0% ≤ substrate protein remaining % ≤ 80%) | < 500 nM | 100 to 500 nM | 5 to 10 nM | 100 to 500 nM | 10 to 50 nM |
| O=C1CCC(N2Cc3cc(CN4CCC(c5nccc(Cl)c5Cl)CC4)ccc3C2=O)C(=O)N1 (centres unmarked) [GT-04690, 3-(5-((4-(3,4-dichloropyridin-2-yl)piperidin-1-yl)methyl)-1-oxoisoindolin-2-yl)piperidine-2,6-dione] | A (0% ≤ substrate protein remaining % ≤ 80%) | A (0% ≤ substrate protein remaining % ≤ 80%) | A (0% ≤ substrate protein remaining % ≤ 80%) | A (0% ≤ substrate protein remaining % ≤ 80%) | A (0% ≤ substrate protein remaining % ≤ 80%) | A (0% ≤ substrate protein remaining % ≤ 80%) | 500 to 1000 nM | 500 to 1000 nM | 5 to 10 nM | 100 to 500 nM | 50 to 100 nM |
| O=C1CCC(N2Cc3cc(CN4CC=C(c5cccc6cnccc56)CC4)ccc3C2=O)C(=O)N1 (centres unmarked) [GT-04666, 3-(5-((4-(isoquinolin-5-yl)-3,6-dihydropyridin-1(2H)-yl)methyl)-1-oxoisoindolin-2-yl)piperidine-2,6-dione] | A (0% ≤ substrate protein remaining % ≤ 80%) | A (0% ≤ substrate protein remaining % ≤ 80%) | A (0% ≤ substrate protein remaining % ≤ 80%) | A (0% ≤ substrate protein remaining % ≤ 80%) | A (0% ≤ substrate protein remaining % ≤ 80%) | A (0% ≤ substrate protein remaining % ≤ 80%) | < 500 nM | 10 to 50 nM | 1 to 5 nM | 10 to 50 nM | 5 to 10 nM |
| O=C1CCC(N2Cc3cc(CN4CC=C(c5ccoc5)CC4)ccc3C2=O)C(=O)N1 (centres unmarked) [GT-04589, 3-(5-((4-(furan-3-yl)-3,6-dihydropyridin-1(2H)-yl)methyl)-1-oxoisoindolin-2-yl)piperidine-2,6-dione] | B (80%< substrate protein remaining %≤ 100%) | B (80%< substrate protein remaining %≤ 100%) | A (0% ≤ substrate protein remaining % ≤ 80%) | B (80%< substrate protein remaining %≤ 100%) | B (80%< substrate protein remaining %≤ 100%) | A (0% ≤ substrate protein remaining % ≤ 80%) | < 500 nM | 500 to 1000 nM | 10 to 50 nM | 100 to 500 nM | 100 to 500 nM |
| Cc1ccc(C2=CCN(Cc3ccc4c(c3)CN(C3CCC(=O)NC3=O)C4=O)CC2)s1 (centres unmarked) [GT-04572, 3-(5-((4-(5-methylthiophen-2-yl)-3,6-dihydropyridin-1(2H)-yl)methyl)-1-oxoisoindolin-2-yl)piperidine-2,6-dione] | A (0% ≤ substrate protein remaining % ≤ 80%) | A (0% ≤ substrate protein remaining % ≤ 80%) | A (0% ≤ substrate protein remaining % ≤ 80%) | A (0% ≤ substrate protein remaining % ≤ 80%) | A (0% ≤ substrate protein remaining % ≤ 80%) | A (0% ≤ substrate protein remaining % ≤ 80%) | 500 to 1000 nM | 10 to 50 nM | 1 to 5 nM | 10 to 50 nM | 10 to 50 nM |
| O=C1CCC(N2Cc3cc(CN4CCN(c5cc(Cl)cc(Cl)c5)CC4)ccc3C2=O)C(=O)N1 (centres unmarked) [GT-04614, 3-(5-((4-(3,5-dichlorophenyl)piperazin-1-yl)methyl)-1-oxoisoindolin-2-yl)piperidine-2,6-dione] | A (0% ≤ substrate protein remaining % ≤ 80%) | B (80%< substrate protein remaining %≤ 100%) | B (80%< substrate protein remaining %≤ 100%) | B (80%< substrate protein remaining %≤ 100%) | B (80%< substrate protein remaining %≤ 100%) | A (0% ≤ substrate protein remaining % ≤ 80%) | 500 to 1000 nM | 10 to 50 nM | 1 to 5 nM | 10 to 50 nM | 10 to 50 nM |
